# Measurements from patent US5215972A, “Steroids” (Hoffmann-La Roche Inc., priority 1989, dated 1993).
# Structures can show the parent of a compound that is named as a salt. Where two headings read alike, the source gives them in different places.
# Legend:
# [1] = Acute toxicity, single oral or intravenous administration to mice; settings: mouse, in vivo
# Excerpt: (§1) The results which have been obtained with some representative products in accordance with the invention are reproduced in Table I. For each of the compounds indicated in Table I the cholesterol resorption, determined at a dosage of 100 μmol/kg p.o., is given in percentages of the control values determined prior to the medication (pre-period). Moreover, the Table contains data concerning the acute toxicity of the compounds investigated (LD50 in mg/kg in the case of single oral or intravenous administration to mice).
# [2] = system: intestinal resorption of cholesterol; experiment: Inhibition of intestinal resorption of [26-^14 C]-cholesterol (CHORES) in squirrel monkeys; type: in vivo; settings: Primates, po, 60 h, 100 μmol/kg p.o., percent of control values determined prior to medication (pre-period), feces collected 2.5 days
# Excerpt: Squirrel monkeys are orally administered the substances to be investigated together with a test feed containing a protein, starch, triolein and [26-^14 C]-cholesterol. Thereafter, the feces is collected for 2.5 days. The difference between the administered and the collected radioactive cholesterol determined in the feces is taken as the measurement of resorbed cholesterol. The cholesterol resorption (CHORES) is expressed in percentages of the control values determined prior to the medication.
# as §1
# [3] = i.v., single intravenous administration to mice, read-out: LD50 i.v.
# [4] = p.o., single oral administration to mice, read-out: LD50 p.o.
SMILES,"LD50 [1, 3] [mg/kg]","LD50 [1, 4] [mg/kg]",response vs control in vivo at 100 µmol/kg [2] [%]
"CC[C@H](/C=C/[C@@H](C)[C@H]1CC[C@H]2[C@@H]3CC=C4C[C@@H](OCCOP(=O)([O-])OCC[N+](C)(C)C)CC[C@]4(C)[C@H]3CC[C@]12C)C(C)C [Example 2r, O-[hydroxy-[2-(stigmasta-5,22-dien-3β-yloxy)ethoxy]phosphinyl]cholinehydroxide internal salt]",500,4000,37
"CC(C)CCC[C@@H](C)[C@H]1CC[C@H]2[C@@H]3CC=C4C[C@@H](OCCOP(=O)([O-])OCC[N+](C)(C)C)CC[C@]4(C)[C@H]3CC[C@]12C [Example 2q, O-[[2-(cholest-5-en-3β-yloxy)ethoxy]hydroxyphosphinyl]choline hydroxide internal salt]",250,4000,16
"CC[C@H](/C=C/[C@@H](C)[C@H]1CC[C@H]2[C@@H]3CC=C4C[C@@H](OC(=O)NCCOP(=O)([O-])OCC[N+](C)(C)C)CC[C@]4(C)[C@H]3CC[C@]12C)C(C)C [Example 7a, O-[hydroxy-[2-[1-[(E)-stigmasta-5,22-dien-3β-yloxy]formamido]ethoxy]phosphinyl]choline hydroxide internal salt]",,,35
"CC[C@H](CC[C@@H](C)[C@H]1CC[C@H]2[C@@H]3CC[C@H]4C[C@@H](OC(=O)NCCOP(=O)([O-])OCC[N+](C)(C)C)CC[C@]4(C)[C@H]3CC[C@]12C)C(C)C [Example 5, O-[hydroxy-[2-[1-(5α-stigmastan-3β-yloxy)formamido]ethoxy]phosphinyl]choline hydroxide internal salt]",,,40
"CC[C@H](CC[C@@H](C)[C@H]1CC[C@H]2[C@@H]3CC[C@H]4C[C@@H](OC(=O)NCCOP(=O)([O-])OCC[n+]5ccccc5)CC[C@]4(C)[C@H]3CC[C@]12C)C(C)C [Example 6, 1-[2-[[hydroxy-[2-[1-(5α-stigmastan-3β-yloxy)-formamido]ethoxy]phosphinyl]oxy]ethyl]pyridinum hydroxide internal salt]",,4000,31
"CC[C@H](CC[C@@H](C)[C@H]1CC[C@H]2[C@@H]3CC[C@H]4C[C@@H](OC(=O)OCCOP(=O)([O-])OCC[N+](C)(C)C)CC[C@]4(C)[C@H]3CC[C@]12C)C(C)C [Example 2a, O-[[2-[[(5α-stigmastan-3β-yloxy)carbonyl]oxy]ethoxy]hydroxyphosphinyl]choline hydroxide internal salt]",250,4000,38
"CC[C@H](CC[C@@H](C)[C@H]1CC[C@H]2[C@@H]3CC[C@H]4C[C@@H](OCCOCCOP(=O)([O-])OCC[N+](C)(C)C)CC[C@]4(C)[C@H]3CC[C@]12C)C(C)C [Example 4a, O-[hydroxy-[2-[2-(3β-stigmastanyloxy)ethoxy]ethoxy]phosphinyl]cholinehydroxide internal salt]",,,30
"CC[C@H](CC[C@@H](C)[C@H]1CC[C@H]2[C@@H]3CC[C@H]4C[C@@H](OC(=O)CCCOP(=O)([O-])OCC[N+](C)(C)C)CC[C@]4(C)[C@H]3CC[C@]12C)C(C)C [Example 2k, O-[hydroxy-[3-[(3β-stigmastanyloxy)carbonyl]propoxy]phosphinyl]choline hydroxide internal salt]",250,4000,39
"CC[C@H](CC[C@@H](C)[C@H]1CC[C@H]2[C@@H]3CC=C4C[C@@H](OC(=O)OCCOP(=O)([O-])OCC[N+](C)(C)C)CC[C@]4(C)[C@H]3CC[C@]12C)C(C)C [Example 16, O-[hydroxy-[2-[[(stigmast-5-en-3β-yloxy)carbonyl]oxy]ethoxy]-phosphinyl]choline hydroxide internal salt]",,,40
